Assay results: patent publication US11970498B2, “CDK2 inhibitors” (BLUEPRINT MEDICINES CORPORATION, priority 2021, dated 2024)

Legend:
CDK2/Cyclin E = CDK2/Cyclin E (Homo sapiens, UniProt P24941); test: CDK2/Cyclin E biochemical phosphorylation assay (Caliper mobility shift); settings: apparent IC50; 1.0 mM ATP or ATP Km; 1.25 nM enzyme; 25° C.; read-out: CDK2/cyclin E1 IC50
Procedure, shortened: (§1)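 Caliper electrophoretic separation of substrate and phosphopeptide gave apparent IC50s. Enzymes: CDK1/Cyclin B1 GST-tag 1.5 nM, CDK2/Cyclin E 1.25 nM; ATP 1.0 mM or at Km; 7.5 µM FL-peptide; pH 7.5 HEPES buffer, 1% DMSO; room temperature until 10–20% phosphorylated, then EDTA quench.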

CDK1/Cyclin B1, GST-tag = molecular target: T1, CDK1/Cyclin B1, GST-tag (Homo sapiens, UniProt P06493); test: CDK1/Cyclin B1 biochemical phosphorylation assay (Caliper mobility shift); settings: apparent IC50; 1.0 mM ATP or ATP Km; 1.5 nM enzyme; 25° C.
T1 construct: GST
Procedure, shortened: as §1

T1 sequence (P06493 whole entry): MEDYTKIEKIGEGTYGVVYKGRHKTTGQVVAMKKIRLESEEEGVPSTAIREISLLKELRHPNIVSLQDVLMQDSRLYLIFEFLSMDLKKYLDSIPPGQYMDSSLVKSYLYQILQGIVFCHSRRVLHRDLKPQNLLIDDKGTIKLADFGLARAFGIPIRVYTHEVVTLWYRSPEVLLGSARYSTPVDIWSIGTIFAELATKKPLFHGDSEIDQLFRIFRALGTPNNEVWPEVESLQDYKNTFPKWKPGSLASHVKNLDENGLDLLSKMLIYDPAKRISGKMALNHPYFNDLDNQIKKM
T1 sequence (P14635 whole entry partner): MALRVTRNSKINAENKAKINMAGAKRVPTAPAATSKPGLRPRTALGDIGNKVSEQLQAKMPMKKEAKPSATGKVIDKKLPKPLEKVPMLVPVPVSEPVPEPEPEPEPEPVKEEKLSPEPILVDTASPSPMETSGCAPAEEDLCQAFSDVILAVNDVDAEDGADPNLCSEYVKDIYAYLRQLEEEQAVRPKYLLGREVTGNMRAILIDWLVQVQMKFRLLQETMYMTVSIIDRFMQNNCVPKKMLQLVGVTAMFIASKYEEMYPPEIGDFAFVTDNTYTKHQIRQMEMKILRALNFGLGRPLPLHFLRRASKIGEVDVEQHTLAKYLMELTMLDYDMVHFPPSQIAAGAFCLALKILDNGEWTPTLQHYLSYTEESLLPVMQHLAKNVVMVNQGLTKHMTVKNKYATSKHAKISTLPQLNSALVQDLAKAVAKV

Compound | IC50 (CDK2/Cyclin E) [nM] | IC50 (CDK1/Cyclin B1, GST-tag) [nM]
COc1cc(Nc2cnc3cnn([C@@H](C(F)F)C4CCOCC4)c3n2)n[nH]1 (single isomer, unassigned) [Example 192, (R)-1-(2,2-difluoro-1-(tetrahydro-2H-pyran-4-yl)ethyl)-N-(5-methoxy-1H-pyrazol-3-yl)-1H-pyrazolo[3,4-b]pyrazin-6-amine or (S)-1-(2,2-difluoro-1-(tetrahydro-2H-pyran-4-yl)ethyl)-N-(5-methoxy-1H-pyrazol-3-yl)-1H-pyrazolo[3,4-b]pyrazin-6-amine] | > 100 | ≥ 500
COc1cc(Nc2cnc3cnn([C@@H](C(F)F)C4CCOCC4)c3n2)n[nH]1 (single isomer, unassigned) [Example 193, (S)-1-(2,2-difluoro-1-(tetrahydro-2H-pyran-4-yl)ethyl)-N-(5-methoxy-1H-pyrazol-3-yl)-1H-pyrazolo[3,4-b]pyrazin-6-amine or (R)-1-(2,2-difluoro-1-(tetrahydro-2H-pyran-4-yl)ethyl)-N-(5-methoxy-1H-pyrazol-3-yl)-1H-pyrazolo[3,4-b]pyrazin-6-amine] | 10 to 20 | ≥ 500
COc1cc(Nc2cnc3cnn(C[C@H]4C[C@@H]4C#N)c3n2)n[nH]1 (single isomer, unassigned) [Example 197, (1R,2R)-2-((6-((5-methoxy-1H-pyrazol-3-yl)amino)-1H-pyrazolo[3,4-b]pyrazin-1-yl)methyl)cyclopropane-1-carbonitrile or (1S,2S)-2-((6-((5-methoxy-1H-pyrazol-3-yl)amino)-1H-pyrazolo[3,4-b]pyrazin-1-yl)methyl)cyclopropane-1-carbonitrile] | 20 to 30 | ≥ 500
CC[C@@H]([C@@H](C)O)n1ncc2ncc(Nc3cc(OC(F)F)[nH]n3)nc21 (single isomer, unassigned) [Example 201, (2R,3S)-3-(6-((5-(difluoromethoxy)-1H-pyrazol-3-yl)amino)-1H-pyrazolo[3,4-b]pyrazin-1-yl)pentan-2-ol or (2R,3R)-3-(6-((5-(difluoromethoxy)-1H-pyrazol-3-yl)amino)-1H-pyrazolo[3,4-b]pyrazin-1-yl)pentan-2-ol] | > 100 | ≥ 500
CCC([C@@H](C)O)n1ncc2ncc(Nc3cc(OC(F)F)[nH]n3)nc21 (single isomer, unassigned) [Example 202] | 30 to 100 | ≥ 500
C[C@@H](CCO)n1ncc2ncc(Nc3cc(OC(F)F)[nH]n3)nc21 (single isomer, unassigned) [Example 205, (S)-3-(6-((5-(difluoromethoxy)-1H-pyrazol-3-yl)amino)-1H-pyrazolo[3,4-b]pyrazin-1-yl)butan-1-ol or (R)-3-(6-((5-(difluoromethoxy)-1H-pyrazol-3-yl)amino)-1H-pyrazolo[3,4-b]pyrazin-1-yl)butan-1-ol] | 30 to 100 | ≥ 500
C[C@@H](CCO)n1ncc2ncc(Nc3cc(OC(F)F)[nH]n3)nc21 (single isomer, unassigned) [Example 206, (R)-3-(6-((5-(difluoromethoxy)-1H-pyrazol-3-yl)amino)-1H-pyrazolo[3,4-b]pyrazin-1-yl)butan-1-ol or (S)-3-(6-((5-(difluoromethoxy)-1H-pyrazol-3-yl)amino)-1H-pyrazolo[3,4-b]pyrazin-1-yl)butan-1-ol] | > 100 | ≥ 500
O[C@H]1CC[C@@H](n2ncc3ncc(Nc4cc(OC(F)F)[nH]n4)nc32)C1 (single isomer, unassigned) [Example 208] | ≤ 10 | ≥ 500
C[C@@H]([C@@H]1COCCO1)n1ncc2ncc(Nc3cc(OC(F)F)[nH]n3)nc21 (single isomer, unassigned) [Example 211] | 30 to 100 | ≥ 500
C[C@@H]([C@@H]1COCCO1)n1ncc2ncc(Nc3cc(OC(F)F)[nH]n3)nc21 (single isomer, unassigned) [Example 213] | 10 to 20 | ≥ 500
C[C@@H]([C@H]1CCCOC1)n1ncc2ncc(Nc3cc(OC(F)F)[nH]n3)nc21 (single isomer, unassigned) [Example 215] | ≤ 10 | < 100
C[C@@H]([C@H]1CCCOC1)n1ncc2ncc(Nc3cc(OC(F)F)[nH]n3)nc21 (single isomer, unassigned) [Example 216] | 10 to 20 | ≥ 500
CC(C1CCCOC1)n1ncc2ncc(Nc3cc(OC(F)F)[nH]n3)nc21 (single isomer, unassigned) [Example 218] | ≤ 10 | < 100

Now from value to molecule:

IC50 (CDK2/Cyclin E) [nM] | IC50 (CDK1/Cyclin B1, GST-tag) [nM] | Compound
≤ 10 | 100 to 500 | COc1cc(Nc2cnc3cnn([C@@H](CF)C4CCOCC4)c3n2)n[nH]1 (single isomer, unassigned) [Example 194, (R)-1-(2-fluoro-1-(tetrahydro-2H-pyran-4-yl)ethyl)-N-(5-methoxy-1H-pyrazol-3-yl)-1H-pyrazolo[3,4-b]pyrazin-6-amine or (S)-1-(2-fluoro-1-(tetrahydro-2H-pyran-4-yl)ethyl)-N-(5-methoxy-1H-pyrazol-3-yl)-1H-pyrazolo[3,4-b]pyrazin-6-amine]
> 100 | ≥ 500 | COc1cc(Nc2cnc3cnn([C@@H](CF)C4CCOCC4)c3n2)n[nH]1 (single isomer, unassigned) [Example 195, (S)-1-(2-fluoro-1-(tetrahydro-2H-pyran-4-yl)ethyl)-N-(5-methoxy-1H-pyrazol-3-yl)-1H-pyrazolo[3,4-b]pyrazin-6-amine or (R)-1-(2-fluoro-1-(tetrahydro-2H-pyran-4-yl)ethyl)-N-(5-methoxy-1H-pyrazol-3-yl)-1H-pyrazolo[3,4-b]pyrazin-6-amine]
> 100 | ≥ 500 | COc1cc(Nc2cnc3cnn(C[C@H]4C[C@@H]4C#N)c3n2)n[nH]1 (single isomer, unassigned) [Example 196, (1S,2S)-2-((6-((5-methoxy-1H-pyrazol-3-yl)amino)-1H-pyrazolo[3,4-b]pyrazin-1-yl)methyl)cyclopropane-1-carbonitrile or (1R,2R)-2-((6-((5-methoxy-1H-pyrazol-3-yl)amino)-1H-pyrazolo[3,4-b]pyrazin-1-yl)methyl)cyclopropane-1-carbonitrile]
10 to 20 | ≥ 500 | O[C@H]1CC[C@@H](n2ncc3ncc(Nc4cc(OC(F)F)[nH]n4)nc32)C1 (single isomer, unassigned) [Example 207]
> 100 | ≥ 500 | O[C@H]1CC[C@@H](n2ncc3ncc(Nc4cc(OC(F)F)[nH]n4)nc32)C1 (single isomer, unassigned) [Example 209]
> 100 | ≥ 500 | O[C@H]1CC[C@@H](n2ncc3ncc(Nc4cc(OC(F)F)[nH]n4)nc32)C1 (single isomer, unassigned) [Example 210]
> 100 | ≥ 500 | C[C@@H]([C@@H]1COCCO1)n1ncc2ncc(Nc3cc(OC(F)F)[nH]n3)nc21 (single isomer, unassigned) [Example 212]
10 to 20 | ≥ 500 | C[C@@H]([C@@H]1COCCO1)n1ncc2ncc(Nc3cc(OC(F)F)[nH]n3)nc21 (single isomer, unassigned) [Example 214]
30 to 100 | ≥ 500 | C[C@@H]([C@H]1CCCOC1)n1ncc2ncc(Nc3cc(OC(F)F)[nH]n3)nc21 (single isomer, unassigned) [Example 217]
